For orientation: inhibition means the share of the control response that was lost under treatment. One may read the pIC50 as the negative decadic logarithm of the IC50, by convention in mol/L.

Data set [1] deals with J774.A1. Briefly: Antiinflammatory activity in mouse J774.A1 cells assessed as inhibition of LPS-induced TNF-alpha secretion at 10 uM incubated for 2 followed by LPS stimulation and measured after 22 hrs by ELISA relative to control. Format: functional. The following applies: for Activity: time 24.0 hrs. (In general: In an ELISA, binding on a coated surface is turned into a signal by an enzyme label.)

In data set [2] the test system is J774.A1. Briefly: Antiinflammatory activity in mouse J774.A1 cells assessed as inhibition of LPS-induced IL6 secretion at 10 uM incubated for 2 followed by LPS stimulation and measured after 22 hrs by ELISA relative to control. Type of data set: functional. The following applies: for Activity: time 24.0 hrs.
Data set [3] relates to J774.A1. The experiment in a line: Cytotoxicity against mouse J774A.1 cells assessed as reduction in cell viability at 10 uM after 24 hrs by MTT assay. The settings on record: j774.a1, 24 h. Type of data set: cell-based. A general note: Tetrazolium dyes change colour on reduction, which living cells bring about.
In data set [4] the test system is Mus musculus. Briefly: Antiinflammatory activity against C57BL/6 mouse model of LPS-induced acute lung injury assessed as reduction in alveolar septa thickening at 20 mg/kg, IG treated 0.5 hrs before LPS challenge by H and E staining based histopathological analysis. Format: functional, organism-based.
For data set [5], the system named is Mus musculus. Briefly: Antiinflammatory activity against C57BL/6 mouse model of LPS-induced acute lung injury assessed as reduction in inflammatory infiltration at 20 mg/kg, IG treated 0.5 hrs before LPS challenge by H and E staining based histopathological analysis. Type of data set: functional, organism-based.
The subject of data set [6] is Mus musculus. The experiment in a line: Antiinflammatory activity against C57BL/6 mouse model of LPS-induced acute lung injury assessed as reduction in lung tissue destruction at 20 mg/kg, IG treated 0.5 hrs before LPS challenge by H and E staining based histopathological analysis. Type of data set: functional, organism-based.
Data set [7] concerns J774.A1. The experiment in a line: Antiinflammatory activity in mouse J774.A1 cells assessed as inhibition of LPS-induced TNF-alpha secretion incubated for 2 followed by LPS stimulation and measured after 22 hrs by ELISA. Format: functional, cell-based.
Data set [8] concerns J774.A1. The experiment in a line: Antiinflammatory activity in mouse J774.A1 cells assessed as inhibition of LPS-induced IL6 secretion incubated for 2 followed by LPS stimulation and measured after 22 hrs by ELISA. Type of data set: functional, cell-based.
Data set [9] deals with Mus musculus. Briefly: Antiinflammatory activity in C57BL/6 mouse model of LPS-induced acute lung injury assessed as reduction in lung wet/dry ratio at 20 mg/kg, IG administered 30 mins prior to LPS instillation. Format: functional, organism-based.
Data set [10] relates to Mus musculus. The experiment in a line: Anti-inflammatory activity against C57BL/6 mouse model of LPS-induced acute lung injury assessed as reduction in cell count in broncho alveolar lavage fluid at 20 mg/kg, IG treated 0.5 hrs before LPS stimulation by ELISA. Format: functional, organism-based.
For data set [11], the system named is Mus musculus. Briefly: Anti-inflammatory activity against C57BL/6 mouse model of LPS-induced acute lung injury assessed as reduction in TNF-alpha secretion in broncho alveolar lavage fluid at 20 mg/kg, IG treated 0.5 hrs before LPS stimulation by ELISA. Format: functional, organism-based.
Data set [12] relates to Mus musculus. Briefly: Anti-inflammatory activity against C57BL/6 mouse model of LPS-induced acute lung injury assessed as reduction in IL6 secretion in broncho alveolar lavage fluid at 20 mg/kg, IG treated 0.5 hrs before LPS stimulation by ELISA. Format: functional, organism-based.
Data set [13] has as its system Mus musculus. Briefly: Antiinflammatory activity against C57BL/6 mouse model of LPS-induced acute lung injury assessed as reduction in interstitial edema in lung tissue at 20 mg/kg, IG treated 0.5 hrs before LPS challenge by H and E staining based histopathological analysis. Format: functional, organism-based.
Data set [14] relates to Mus musculus. Briefly: Antiinflammatory activity against C57BL/6 mouse model of LPS-induced acute lung injury assessed as reduction in pulmonary congestion at 20 mg/kg, IG treated 0.5 hrs before LPS challenge by H and E staining based histopathological analysis. Format: functional, organism-based.

pIC50: −log10 of the molar value. The source made the active and inactive calls. No cut-off for these calls is given here.

With `CN(C)CCCOc1ccc(O)c(C(=O)/C=C/c2ccc(O)c(O)c2)c1`, the outcome with J774.A1 [1] and with J774.A1 [2] was Active. Also, the Activity result in the data set on J774.A1 [3] is “Non-Toxic”.

As to `COc1cc(O)c(C(=O)/C=C/c2ccc(O)c(O)c2)cc1OC`, the outcome with J774.A1 [1] and with J774.A1 [2] was Active. Besides, the Activity entry in the data set on J774.A1 [3] was “Non-Toxic”.

For `O=C(/C=C/c1ccc(O)c(O)c1)c1ccc(OCCCN2CCOCC2)cc1O`, the outcome with J774.A1 [1] and in the data set on J774.A1 [2] was Active. In the data set on J774.A1 [3], the Activity entry is “Non-Toxic”.

Turning to `COc1ccc(C(=O)/C=C/c2ccc(O)c(O)c2)c(O)c1` [CALYTHROPSIN], the result in the data set with J774.A1 [1] and with J774.A1 [2] was Active. Further, the Activity result in the data set on J774.A1 [3] is on record as “Non-Toxic”.

Consider `O=c1c(O)c(-c2ccc(O)c(O)c2)oc2cc(Br)ccc12`, for which the result with J774.A1 [1] and with J774.A1 [2] was Active. Further, the Activity entry in the data set on J774.A1 [3] was “Non-Toxic”.

In the case of `CN1CCN(CCCOc2ccc(O)c(C(=O)/C=C/c3ccc(O)c(O)c3)c2)CC1`, the outcome with J774.A1 [1] and in the data set with J774.A1 [2] was Active. The Activity result in the data set on J774.A1 [3] is “Non-Toxic”.

Consider `O=C(/C=C/c1ccc(O)c(O)c1)c1ccc(OCCN2CCCC2)cc1O`, for which the result with J774.A1 [1] and in the data set on J774.A1 [2] was Active. Also, the Activity result with J774.A1 [3] is on record as “Non-Toxic”.

Turning to `O=C(/C=C/c1ccc(O)c(O)c1)c1ccc(OCCN2CCOCC2)cc1O`, the outcome with J774.A1 [1] and with J774.A1 [2] was Active. Moreover, in the data set on J774.A1 [3], the Activity entry is reported as “Non-Toxic”.

`CN(C)CCCOc1ccc(C(=O)/C=C/c2ccc(O)c(O)c2)c(O)c1`: the outcome in the data set with Mus musculus [4], in the data set with Mus musculus [5], in the data set with Mus musculus [6], in the data set with Mus musculus [9], in the data set on Mus musculus [10] and with Mus musculus [11] was Active. Moreover, the outcome in the data set with Mus musculus [12], in the data set with Mus musculus [13] and in the data set with Mus musculus [14] was Active. Further, the values for the inhibition at 10 µM in the data set on J774.A1 [1] (time 24 hrs) and with J774.A1 [2] (time 24 hrs) were 76.4% and 89.6%, respectively. Also, in the data set on J774.A1 [3], the Activity entry is on record as “Non-Toxic”. In addition, the pIC50 was 5.59 in the data set with J774.A1 [7] (J774.A1, 22 h) and 5.08 in the data set on J774.A1 [8] (J774.A1, 22 h). For the same compound, the inhibition entry in the data set on J774.A1 [7] (time 24.0 hrs) and in the data set on J774.A1 [8] (time 24.0 hrs) was “Dose-dependent effect” throughout.

Consider `O=C(/C=C/c1ccc(O)c(O)c1)c1cc(OCCCN2CCOCC2)ccc1O`, for which the outcome in the data set with J774.A1 [1] and in the data set on J774.A1 [2] was Active. The Activity result with J774.A1 [3] was “Non-Toxic”.

Take `O=C(/C=C/c1ccc(O)c(O)c1)c1ccc(F)cc1O`: the outcome with J774.A1 [1] and in the data set with J774.A1 [2] was Active. Also, the Activity entry in the data set on J774.A1 [3] was “Non-Toxic”.

Take `O=C(/C=C/c1ccc(O)c(O)c1)c1cc(F)ccc1O`: the result in the data set with J774.A1 [1] and in the data set with J774.A1 [2] was Active. The Activity result in the data set on J774.A1 [3] was “Non-Toxic”.

As for `O=c1c(O)c(-c2ccc(O)c(O)c2)oc2cc(O)ccc12` [FISETIN], the result in the data set with J774.A1 [1], with J774.A1 [2] and in the data set on Mus musculus [10] was Active. Besides, the Activity result in the data set on J774.A1 [3] is recorded as “Non-Toxic”.

Take `O=C(/C=C/c1ccc(O)c(O)c1)c1ccc(OCCCN2CCCC2)cc1O`: the result in the data set on J774.A1 [1] and in the data set on J774.A1 [2] was Active. The Activity entry in the data set with J774.A1 [3] was “Non-Toxic”.

Take `O=C(/C=C/c1ccc(O)c(O)c1)c1cc(OCCN2CCOCC2)ccc1O`: the result in the data set on J774.A1 [1] and in the data set with J774.A1 [2] was Active. Also, the Activity result in the data set with J774.A1 [3] is listed as “Non-Toxic”.

With `O=C(/C=C/c1ccc(O)c(O)c1)c1cc(OCCCN2CCCC2)ccc1O`, the result with J774.A1 [1] and with J774.A1 [2] was Active. The Activity result in the data set with J774.A1 [3] was “Non-Toxic”.

As for `O=c1c(O)c(-c2ccc(O)c(O)c2)oc2ccc(Br)cc12`, the result with J774.A1 [1] and in the data set on J774.A1 [2] was Active. Also, the Activity result in the data set with J774.A1 [3] was “Non-Toxic”.

With `O=C(/C=C/c1ccc(O)c(O)c1)c1ccc([N+](=O)[O-])cc1O`, the result in the data set on J774.A1 [1] and in the data set with J774.A1 [2] was Active. Moreover, the Activity entry in the data set on J774.A1 [3] is listed as “Non-Toxic”.

`O=C(/C=C/c1ccc(O)c(O)c1)c1ccc(Br)cc1O`: the result in the data set with J774.A1 [1] and in the data set on J774.A1 [2] was Active. Also, in the data set on J774.A1 [3], the Activity result is recorded as “Non-Toxic”.

With `O=C(/C=C/c1ccc(O)c(O)c1)c1cc(OCCCN2CCCCC2)ccc1O`, the result with J774.A1 [1] and in the data set with J774.A1 [2] was Active. In addition, the Activity entry in the data set on J774.A1 [3] is listed as “Non-Toxic”.

As for `O=c1c(O)c(-c2ccc(O)c(O)c2)oc2ccc(F)cc12`, the outcome in the data set on J774.A1 [1] and in the data set with J774.A1 [2] was Active. In addition, the Activity entry in the data set on J774.A1 [3] is reported as “Non-Toxic”.

In the case of `O=C(/C=C/c1ccc(O)c(O)c1)c1ccc(OCCCN2CCCCC2)cc1O`, the result in the data set with J774.A1 [1] and in the data set on J774.A1 [2] was Active. In addition, in the data set on J774.A1 [3], the Activity result was “Non-Toxic”.

In the case of `O=c1c(O)c(-c2ccc(O)c(O)c2)oc2cc(F)ccc12`, the result in the data set on J774.A1 [1] and in the data set with J774.A1 [2] was Active. For the same compound, in the data set with J774.A1 [3], the Activity result is on record as “Non-Toxic”.

Turning to `O=C(/C=C/c1ccc(O)c(O)c1)c1cc(Br)ccc1O`, the outcome with J774.A1 [1] and in the data set with J774.A1 [2] was Active. Moreover, the Activity result in the data set with J774.A1 [3] is listed as “Non-Toxic”.

With `O=C(/C=C/c1ccc(O)c(O)c1)c1cc(OCCN2CCCC2)ccc1O`, the outcome in the data set with J774.A1 [1] and with J774.A1 [2] was Active. Further, the Activity entry in the data set on J774.A1 [3] is “Non-Toxic”.

As to `COc1ccc2c(=O)c(O)c(-c3ccc(O)c(O)c3)oc2c1`, the outcome with J774.A1 [1] and with J774.A1 [2] was Active. The Activity entry in the data set with J774.A1 [3] is “Non-Toxic”.

The values are drawn from ChEMBL document CHEMBL5055655, “Design, synthesis and bioactivity evaluation of fisetin derivatives as potential anti-inflammatory agents against LPS-induced acute lung injury” (Bioorg Med Chem, 2021).
